Measurements reported in patent publication US20070185193A1, “Huvastatin and its preparation and formulation comprising the huvastatin” (HUAIBEI HUIKE PHARMACEUTICAL, CO. LTD., priority 2003, published 2007).

Experiments:
rats = experiment: Animal test: blood lipid level and cholesterol in rats; format: in vivo; settings: twice per day, 0.05 or 0.1 mg/dose/rat, blood samples after one week
Procedure: Compound 1, 2 or 3 prepared in examples 1-3 were administered to rats (10 rats in each group), respectively, twice per day, 0.05 mg/dose/rat or 0.1 mg/dose/rat. Blood samples were taken and analyzed after one week for blood lipid level and cholesterol.

physchem = settings: pH 7.4

Row | SMILES | blood lipid versus control group (rats) | logD (physchem)
1 | CCC(C)(C)C(=O)OC1CC(O)C=C2C=CC(C)C(CCC3CC(CC(=O)O)OC(C)(C)O3)C21 (stereo not drawn) [Compound 3] | lower than that of the control group | 
2 | CCC(C)(C)C(=O)OC1CC(O)C=C2C=CC(C)C(CCC3CC(O)CC(=O)O3)C21 (stereo not drawn) [Compound 1, 2,2-Dimethylbutyricacid-3-hydroxy-8-[2-(4-hydroxy-6-oxo-tetrahydropyran-2-yl)-ethyl]-7-methyl-1,2,3,7,8,8a-hexahydronaphthalen-1-yl ester] | lower than that of the control group | 0.82
